Measured values reported in ChEMBL document CHEMBL3046541, “Design and synthesis of 2-chloroquinoline derivatives as non-azoles antimycotic agents” (2011).

How the values were obtained:
Assay type in all cases: functional
Aspergillus niger [1] = assay: Antifungal activity against Aspergillus niger MTCC 281 at 200 ug/ml after 72 hr by cup-plate method; conditions: MTCC 281, 72 h, read-out: IZ
Monascus purpureus [2] = assay: Antifungal activity against Monascus purpureus MTCC 369 at 200 ug/ml after 72 hr by cup-plate method; conditions: MTCC 369, 72 h, read-out: IZ
Penicillium citrinum [3] = assay: Antifungal activity against Penicillium citrinum NCIM 768 at 200 ug/ml after 72 hr by cup-plate method; conditions: NCIM 768, 72 h, read-out: IZ
Aspergillus flavus [4] = assay: Antifungal activity against Aspergillus flavus MTCC 277 at 200 ug/ml after 72 hr by cup-plate method; conditions: MTCC 277, 72 h, read-out: IZ
Aspergillus flavus [5] = assay: Antifungal activity against Aspergillus flavus MTCC 277 at 100 ug/ml after 72 hr by cup-plate method; conditions: MTCC 277, 72 h, read-out: IZ
Monascus purpureus [6] = assay: Antifungal activity against Monascus purpureus MTCC 369 at 100 ug/ml after 72 hr by cup-plate method; conditions: MTCC 369, 72 h, read-out: IZ
Penicillium citrinum [7] = assay: Antifungal activity against Penicillium citrinum NCIM 768 at 100 ug/ml after 72 hr by cup-plate method; conditions: NCIM 768, 72 h, read-out: IZ
Aspergillus niger [8] = assay: Antifungal activity against Aspergillus niger MTCC 281 at 100 ug/ml after 72 hr by cup-plate method; conditions: MTCC 281, 72 h, read-out: IZ

`Clc1nc2ccccc2cc1CNc1ccccc1` was tested, and the zone of inhibition at 200 µg/mL (Aspergillus niger [1]) was 12 mm, the zone of inhibition at 200 µg/mL (Monascus purpureus [2]) was 7.7 mm and the zone of inhibition at 200 µg/mL (Penicillium citrinum [3]) was 8.06 mm. For the same compound, the zone of inhibition at 200 µg/mL (Aspergillus flavus [4]) was 12.4 mm.
In the case of `Clc1ccc(NCc2cc3ccccc3nc2Cl)cc1`, the zone of inhibition at 200 µg/mL (Aspergillus niger [1]) is reported as 15.9 mm, the zone of inhibition at 200 µg/mL (Monascus purpureus [2]) is reported as 9.73 mm and the zone of inhibition at 200 µg/mL (Penicillium citrinum [3]) is reported as 10.3 mm. The zone of inhibition at 200 µg/mL (Aspergillus flavus [4]) was 16 mm.
`Cc1ccc(NCc2cc3ccccc3nc2Cl)cc1` was tested, and the zone of inhibition at 200 µg/mL (Aspergillus niger [1]) was 10.9 mm, the zone of inhibition at 200 µg/mL (Monascus purpureus [2]) was 7.63 mm and the zone of inhibition at 200 µg/mL (Penicillium citrinum [3]) was 8.06 mm. The zone of inhibition at 200 µg/mL (Aspergillus flavus [4]) was 12.8 mm.
Compound `Clc1nc2ccccc2cc1CNc1ccc(Br)cc1` has a zone of inhibition at 200 µg/mL (Aspergillus niger [1]) of 13.7 mm, a zone of inhibition at 200 µg/mL (Monascus purpureus [2]) of 8 mm and a zone of inhibition at 200 µg/mL (Penicillium citrinum [3]) of 9.86 mm. It also gave a zone of inhibition at 200 µg/mL (Aspergillus flavus [4]) of 10.5 mm.
`Clc1cccc(NCc2cc3ccccc3nc2Cl)c1` gave a zone of inhibition at 200 µg/mL (Aspergillus niger [1]) of 13.4 mm, a zone of inhibition at 200 µg/mL (Monascus purpureus [2]) of 9.63 mm and a zone of inhibition at 200 µg/mL (Penicillium citrinum [3]) of 8.03 mm. For the same compound, the zone of inhibition at 200 µg/mL (Aspergillus flavus [4]) was 11.6 mm.
For `COc1ccc(NCc2cc3ccccc3nc2Cl)cc1`, the zone of inhibition at 200 µg/mL (Aspergillus niger [1]) was 10.8 mm, the zone of inhibition at 200 µg/mL (Monascus purpureus [2]) was 7.66 mm and the zone of inhibition at 200 µg/mL (Penicillium citrinum [3]) was 7.63 mm. It also gave a zone of inhibition at 200 µg/mL (Aspergillus flavus [4]) of 13 mm.
Work on `Fc1ccc(NCc2cc3ccccc3nc2Cl)cc1` yielded a zone of inhibition at 200 µg/mL (Aspergillus niger [1]) of 14.8 mm, a zone of inhibition at 200 µg/mL (Monascus purpureus [2]) of 9.8 mm and a zone of inhibition at 200 µg/mL (Penicillium citrinum [3]) of 8.53 mm. For the same compound, the zone of inhibition at 200 µg/mL (Aspergillus flavus [4]) was 15 mm.
For `O=[N+]([O-])c1ccc(NCc2cc3ccccc3nc2Cl)cc1`, the zone of inhibition at 200 µg/mL (Aspergillus niger [1]) was 8.06 mm, the zone of inhibition at 200 µg/mL (Monascus purpureus [2]) was 7.7 mm and the zone of inhibition at 200 µg/mL (Penicillium citrinum [3]) was 6.13 mm. It also gave a zone of inhibition at 200 µg/mL (Aspergillus flavus [4]) of 8.33 mm.
Work on `Cc1cccc(NCc2cc3ccccc3nc2Cl)c1` yielded a zone of inhibition at 200 µg/mL (Aspergillus niger [1]) of 9.53 mm, a zone of inhibition at 200 µg/mL (Monascus purpureus [2]) of 7.6 mm and a zone of inhibition at 200 µg/mL (Penicillium citrinum [3]) of 5.73 mm. For the same compound, the zone of inhibition at 200 µg/mL (Aspergillus flavus [4]) was 10.1 mm.
Work on `Cc1ccccc1NCc1cc2ccccc2nc1Cl` yielded a zone of inhibition at 200 µg/mL (Aspergillus niger [1]) of 8.66 mm, a zone of inhibition at 200 µg/mL (Monascus purpureus [2]) of 6.4 mm and a zone of inhibition at 200 µg/mL (Penicillium citrinum [3]) of 7.03 mm. The zone of inhibition at 200 µg/mL (Aspergillus flavus [4]) was 7.03 mm.
`Fc1ccc(NCc2cc3ccccc3nc2Cl)cc1Cl` showed a zone of inhibition at 200 µg/mL (Aspergillus niger [1]) of 17.8 mm, a zone of inhibition at 200 µg/mL (Monascus purpureus [2]) of 11.5 mm and a zone of inhibition at 200 µg/mL (Penicillium citrinum [3]) of 9.73 mm. The zone of inhibition at 200 µg/mL (Aspergillus flavus [4]) was 19.7 mm.
`Clc1ccccc1NCc1cc2ccccc2nc1Cl` was tested, and the zone of inhibition at 200 µg/mL (Aspergillus niger [1]) was 13.9 mm, the zone of inhibition at 200 µg/mL (Monascus purpureus [2]) was 7.33 mm and the zone of inhibition at 200 µg/mL (Penicillium citrinum [3]) was 7.06 mm. For the same compound, the zone of inhibition at 200 µg/mL (Aspergillus flavus [4]) was 10.6 mm.
With `Clc1ccc(NCc2cc3ccccc3nc2Cl)cc1Cl` the zone of inhibition at 200 µg/mL (Aspergillus niger [1]) was 19.6 mm, the zone of inhibition at 200 µg/mL (Monascus purpureus [2]) was 9.7 mm and the zone of inhibition at 200 µg/mL (Penicillium citrinum [3]) was 8.76 mm. The zone of inhibition at 200 µg/mL (Aspergillus flavus [4]) was 18.7 mm.
In the case of `Clc1nc2ccccc2cc1CNC1CCCCC1`, the zone of inhibition at 200 µg/mL (Aspergillus niger [1]) is reported as 6.27 mm.
`CCCCNCc1cc2ccccc2nc1Cl` gave a zone of inhibition at 200 µg/mL (Aspergillus niger [1]) of 9.47 mm and a zone of inhibition at 200 µg/mL (Aspergillus flavus [4]) of 8.25 mm.
For `Clc1nc2ccccc2cc1CNCc1ccccc1`, the zone of inhibition at 200 µg/mL (Aspergillus niger [1]) was 15.7 mm, the zone of inhibition at 200 µg/mL (Monascus purpureus [2]) was 8.4 mm and the zone of inhibition at 200 µg/mL (Penicillium citrinum [3]) was 9.06 mm. It also gave a zone of inhibition at 200 µg/mL (Aspergillus flavus [4]) of 14.5 mm.
Work on `CN(Cc1cc2ccccc2nc1Cl)c1ccccc1` yielded a zone of inhibition at 200 µg/mL (Aspergillus niger [1]) of 13.2 mm, a zone of inhibition at 200 µg/mL (Monascus purpureus [2]) of 8.09 mm and a zone of inhibition at 200 µg/mL (Penicillium citrinum [3]) of 9.74 mm. It also gave a zone of inhibition at 200 µg/mL (Aspergillus flavus [4]) of 14.2 mm.
Work on `CN(Cc1cc2ccccc2nc1Cl)c1ccc(Cl)cc1` yielded a zone of inhibition at 200 µg/mL (Aspergillus niger [1]) of 17.1 mm, a zone of inhibition at 200 µg/mL (Monascus purpureus [2]) of 10.5 mm and a zone of inhibition at 200 µg/mL (Penicillium citrinum [3]) of 9.85 mm. For the same compound, the zone of inhibition at 200 µg/mL (Aspergillus flavus [4]) was 17.7 mm.
`CN(Cc1cc2ccccc2nc1Cl)c1cccc(Cl)c1` gave a zone of inhibition at 200 µg/mL (Aspergillus niger [1]) of 15.2 mm, a zone of inhibition at 200 µg/mL (Monascus purpureus [2]) of 9.63 mm and a zone of inhibition at 200 µg/mL (Penicillium citrinum [3]) of 11.1 mm. The zone of inhibition at 200 µg/mL (Aspergillus flavus [4]) was 12.1 mm.
In the case of `CN(Cc1cc2ccccc2nc1Cl)c1ccc(F)cc1`, the zone of inhibition at 200 µg/mL (Aspergillus niger [1]) is reported as 15.9 mm, the zone of inhibition at 200 µg/mL (Monascus purpureus [2]) is reported as 11.5 mm and the zone of inhibition at 200 µg/mL (Penicillium citrinum [3]) is reported as 9.77 mm. The zone of inhibition at 200 µg/mL (Aspergillus flavus [4]) was 17.1 mm.
For `CN(Cc1cc2ccccc2nc1Cl)c1ccc(F)c(Cl)c1`, the zone of inhibition at 200 µg/mL (Aspergillus niger [1]) was 19.4 mm, the zone of inhibition at 200 µg/mL (Monascus purpureus [2]) was 13.1 mm and the zone of inhibition at 200 µg/mL (Penicillium citrinum [3]) was 10.4 mm. It also gave a zone of inhibition at 200 µg/mL (Aspergillus flavus [4]) of 20.8 mm.
In the case of `CN(Cc1cc2ccccc2nc1Cl)c1ccc(Cl)c(Cl)c1`, the zone of inhibition at 200 µg/mL (Aspergillus niger [1]) is reported as 21.1 mm, the zone of inhibition at 200 µg/mL (Monascus purpureus [2]) is reported as 10.4 mm and the zone of inhibition at 200 µg/mL (Penicillium citrinum [3]) is reported as 11.1 mm. The zone of inhibition at 200 µg/mL (Aspergillus flavus [4]) was 19.5 mm.
`CN(C/C=C/C#CC(C)(C)C)Cc1cccc2ccccc12` [TERBINAFINE] was tested, and the zone of inhibition at 100 µg/mL (Aspergillus flavus [5]) was 25.1 mm, the zone of inhibition at 100 µg/mL (Monascus purpureus [6]) was 26.2 mm and the zone of inhibition at 100 µg/mL (Penicillium citrinum [7]) was 21.8 mm. It also gave a zone of inhibition at 100 µg/mL (Aspergillus niger [8]) of 24.7 mm.
